The structures appear in SMILES notation.

The term EC50 denotes the concentration that produces a half-maximal response.

For this assay, the system named is GT4a-ED43 replicon. Kind of assay: Stable replicon assay, comparison to daclatasvir, GT4a-ED43. As to conditions: Hepatitis C virus. Type of assay: cell-based. The text has this: The GT3a-S52 replicon plasmid pSGRlucneo-GT3a-S52-HDVR-(ISH) was synthesized by Genscript. This plasmid encodes a GT3a (strain S52, accession GU814264) bicistronic subgenomic replicon encoding the hRluc-Neo reporter gene in the first cistron and NS3-NS5B, driven by an encephalomyocarditis virus (EMCV) internal ribosome entry site (IRES), in the second cistron. The hepatitis delta ribozyme (HDVR) was included after the HCV 3′ NTR followed by a unique SpeI restriction site for linearization. This replicon encodes three cell culture adaptive mutations, P1226S (NS3), D1437H (NS3), and S2210I (NS5A), as described previously (Saeed et al 2012 Antimicrob. Agents Chemother. 54: 1878-1887). The GT4a-ED43 replicon plasmid pSGRlucneo-GT4a-ED43-HDVR-(KG) was synthesized by Genscript. […]
Stable HCV replicon cell lines were grown in complete media (Dulbecco's modified Eagle medium [DMEM], 2 mM L-glutamine, 0.1 mM essential amino acids, 1 mM sodium pyruvate, 10% fetal bovine serum) with the addition 500 μg/ml […] (G418). […] For stable and transient replicon assays, luciferase activity of compound-treated cells was measured relative to DMSO-treated cells after 72 h incubation using RENILLA-GLO™ Luciferase Assay (Promega). […]
(In general: A replicon is a self-replicating genome or part of one, used to study replication in cells.)

In the case of `COC(=O)N[C@H](C(=O)N1C[C@]2(CCCOC2)C[C@H]1c1ncc(-c2ccc(-c3ccc4c(ccc5nc([C@@H]6C[C@@H]7CCC[C@@H]7N6C(=O)[C@@H](NC(=O)OC)C(C)C)[nH]c54)c3)cc2)[nH]1)C(C)C` [Compound 16], the EC50 was 11 pM.

For the compound `COC(=O)N[C@H](C(=O)N1CCC[C@H]1c1nc(-c2ccc(-c3ccc(-c4c[nH]c([C@@H]5CCCN5C(=O)[C@@H](NC(=O)OC)C(C)C)n4)cc3)cc2)c[nH]1)C(C)C` [Daclatasvir, reference compound], the concentration for a half-maximal effect (EC50) was found to be 25 pM.

These data come from US10407445B2, “Hepatitis C virus inhibitors” (ENANTA PHARMACEUTICALS, INC., priority 2013, dated 2019).
